Test results as given in patent publication US20230165867A1 (CHENGDU BAIYU PHARMACEUTICAL CO., LTD., priority 2020, published 2023).
Where two headings read alike, the source gives them in different places.

How the values were obtained:
[1] = Pharmacokinetic assay in ICR mice (i.v. and p.o.); assay type: in vivo; details: mouse, plasma, male ICR mice; for half-life: read-out: T½ (converted); for bioavailability: po 10 mg/kg vs iv 1 mg/kg
Description: ICR mice were purchased from Beijing Vital River Laboratory Animal Technology Co., Ltd.
3.2 Experimental procedure • (1) Healthy male ICR mice (18-22 g) were prepared, with 18 mice for each compound. The mice were divided into 2 groups (an i.v. group and a p.o. group), with 9 mice per group. 3 mice were picked for blood collection at each time point. • (2) After the animals were fasted overnight (with free access to water), the compound of the present invention dissolved (or suspended) in a solvent of 5% DMSO and 95% 30% HP-β-CD (v:v) was administered via the tail vein (i.v., 1 mg/kg) or intragastrically (p.o., 10 mg/kg), respectively. • (3) For the i.v. group, 0.1 mL blood was collected from the submandibular vein 5 min, 15 min, 0.5 h, 1 h, 2 h, 4 h, 8 h, 12 h, and 24 h after administration, respectively, anticoagulated with EDTA-K2, and centrifuged at 4° C. for 5 min to obtain plasma, which was stored at -20° C. until testing. (4) For the p.o. group, 0.1 mL blood was collected from the submandibular vein before administration and 15 min, 0.5 h, 1 h, 2 h, 4 h, 6 h, 8 h, 12 h, and 24 h after administration, and treated in the same manner as that for the intravenous group. • (5) The concentration of the compound of the present invention in plasma was measured by LC/MS/MS. • (6) Calculation and fitting were performed with Analyst 1.6 from AB Company, and the results are shown in Table 3.

DNA-PK kinase = target: T1, DNA-PK kinase (Homo sapiens, UniProt P78527); assay: Inhibition assay of DNA-PK kinase (Promega kit, ADP-Glo chemiluminescence); assay type: biochemical; details: 50 µM ATP, 37° C., 60 min; read-out: IC50 (nM), inhibitory activity on DNA-PK kinase
T1 construct: purchased Promega V4107
Description: The inhibitory activity of the compounds on DNA-PK kinase was measured by using a DNA-PK kinase assay kit (purchased from Promega, Cat.#: V4107, Lot: 0000366495). The results were quantified by chemiluminescence, and the detailed experimental protocol was as follows: • i. An ADP-fluorescence standard curve over a range of concentrations was plotted according to the kit instructions; • ii. […] The mixtures were mixed well, centrifuged (1000 rpm, 30 s), and incubated at 37° C. for 60 min; • iv. 5 µL of ADP-Glo™ Reagent was added to stop the reaction, which was then mixed well, centrifuged (1000 rpm, 30 s), and incubated at room temperature for 40 min; • v. 10 µL Kinase Detection Reagent was added, and the mixture was mixed well by shaking, centrifuged (1000 rpm, 30 s), and incubated at room temperature for 30 min; • vi. The […] was measured by using a microplate reader (Thermo fisher, Varioskan LUX).

SMILES | IC50 (DNA-PK kinase) [nM] | also measured
CCn1c(=O)n(C2CCOCC2)c2nc(Nc3cc(F)c(C(N)=O)cc3C)ncc21 [Compound 62, 4-((7-ethyl-8-oxo-9-(tetrahydro-2H-pyran-4-yl)-8,9-dihydro-7H-purin-2-yl)amino)-2-fluoro-5-methylbenzamide] | 4.17 | AUC ([1]; iv, 1 mg/kg): 1190 ng·h/mL; half-life ([1]; iv, 1 mg/kg): 1.69 h; bioavailability [1]: 44.8%; AUC ([1]; po, 10 mg/kg): 4720 ng·h/mL; Cmax ([1]; po, 10 mg/kg): 1850 ng/mL; half-life ([1]; po, 10 mg/kg): 3.01 h
CO[C@H]1CC[C@H](n2c(=O)n(C)c3cnc(Nc4cc(F)c(C(N)=O)cc4C)nc32)CC1 [Compound 71, 2-Fluoro-4-((9-(trans-4-methoxycyclohexyl)-7-methyl-8-oxo-8,9-dihydro-7H-purin-2-yl)amino)-5-methylbenzamide] | 2.17 | 
Cc1cc(C#N)ccc1Nc1ncc2c(n1)n([C@H]1CC[C@@H](C#N)CC1)c(=O)n2C [Compound 78, 4-((9-(cis-4-cyanocyclohexyl)-7-methyl-8-oxo-8,9-dihydro-7H-purin-2-yl)amino)-3-methylbenzonitrile] | 0.038 | AUC ([1]; iv, 1 mg/kg): 216 ng·h/mL; half-life ([1]; iv, 1 mg/kg): 1.17 h; bioavailability [1]: 65.2%; AUC ([1]; po, 10 mg/kg): 1200 ng·h/mL; Cmax ([1]; po, 10 mg/kg): 446 ng/mL; half-life ([1]; po, 10 mg/kg): 3.5 h
Cc1cc(C(N)=O)c(F)cc1Nc1ncc2c(n1)n(C1C[C@H]3CC(O)C[C@H]3C1)c(=O)n2C (stereo partly drawn) [Compound 84, 2-Fluoro-4-((9-((3aR,6aS)-5-hydroxyoctahydropentalen-2-yl)-7-methyl-8-oxo-8,9-dihydro-7H-purin-2-yl)amino)-5-methylbenzamide] | 0.24 | 
Cc1cc(C(N)=O)c(F)cc1Nc1ncc2c(n1)n(C1CCC3(CC1)COC3)c(=O)n2C [Compound 86, 2-Fluoro-5-methyl-4-((7-methyl-8-oxo-9-(2-oxaspiro[3.5]nonan-7-yl)-8,9-dihydro-7H-purin-2-yl)amino)benzamide] | 0.44 | 
Cc1cc(C(N)=O)c(F)cc1Nc1ncc2c(n1)n(C1CC3(COC3)C1)c(=O)n2C [Compound 89, 2-Fluoro-5-methyl-4-((7-methyl-8-oxo-9-(2-oxaspiro[3.3]heptan-6-yl)-8,9-dihydro-7H-purin-2-yl)amino)benzamide] | 3.83 | 
Cc1cc(C(N)=O)c(F)cc1Nc1ncc2c(n1)n(C13CCC(C#N)(CC1)CC3)c(=O)n2C [Compound 90, 4-((9-(4-cyanobicyclo[2.2.2]octan-1-yl)-7-methyl-8-oxo-8,9-dihydro-7H-purin-2-yl)amino)-2-fluoro-5-methylbenzamide] | 10.8 | 
Cc1cc(C(N)=O)c(F)cc1Nc1ncc2c(n1)n(C1CCCC(C)(O)C1)c(=O)n2C (stereo not drawn) [Compound 91, 2-Fluoro-4-((9-(3-hydroxy-3-methylcyclohexyl)-7-methyl-8-oxo-8,9-dihydro-7H-purin-2-yl)amino)-5-methylbenzamide] | 2.44 | 
Cc1cc(C(N)=O)c(F)cc1Nc1ncc2c(n1)n(C1CCC(C)(C#N)CC1)c(=O)n2C (stereo not drawn) [Compound 92, 4-((9-(4-cyano-4-methylcyclohexyl)-7-methyl-8-oxo-8,9-dihydro-7H-purin-2-yl)amino)-2-fluoro-5-methylbenzamide] | 0.02 | 
Cc1cc(C(N)=O)c(F)cc1Nc1ncc2c(n1)n([C@H]1C[C@@H](O)C1)c(=O)n2C [Compound 94, 2-Fluoro-4-((9-(cis-3-hydroxycyclobutyl)-7-methyl-8-oxo-8,9-dihydro-7H-purin-2-yl)amino)-5-methylbenzamide] | 7.2 | 
Cc1cc(C(N)=O)c(F)cc1Nc1ncc2c(n1)n(C1CCCC(O)C1)c(=O)n2C (stereo not drawn) [Compound 95, 2-Fluoro-4-((9-(-3-hydroxycyclohexyl)-7-methyl-8-oxo-8,9-dihydro-7H-purin-2-yl)amino)-5-methylbenzamide] | 0.6 | 
Cc1cc(C(N)=O)c(F)cc1Nc1ncc2c(n1)n(C1CCC(CO)OC1)c(=O)n2C (stereo not drawn) [Compound 96, 2-Fluoro-4-((9-(6-(hydroxymethyl)tetrahydro-2H-pyran-3-yl)-7-methyl-8-oxo-8,9-dihydro-7H-purin-2-yl)amino)-5-methylbenzamide] | 3.89 | 
Cc1cc(C(N)=O)c(F)cc1Nc1ncc2c(n1)n(C1CC3(CC(CO)C3)C1)c(=O)n2C (stereo not drawn) [Compound 97, 2-Fluoro-4-((9-(6-(hydroxymethyl)spiro[3.3]heptan-2-yl)-7-methyl-8-oxo-8,9-dihydro-7H-purin-2-yl)amino)-5-methylbenzamide] | 0.68 | 
Cc1cc(C#N)ccc1Nc1ncc2c(n1)n(C1CC3CC(O)CC3C1)c(=O)n2C (stereo not drawn) [Compound 98, 4-[(9-(5-hydroxy-octahydropentalen-2-yl)-7-methyl-8-oxo-8,9-dihydro-7H-purin-2-yl)amino]-3-methylbenzonitrile] | 4.01 | 
Cc1cc(C(N)=O)c(F)cc1Nc1ncc2c(n1)n(C1C[C@@H]3COC[C@H]3C1)c(=O)n2C [Compound 99, 2-fluoro-4-((9-((3aS,6aS)-hexahydro-1H-cyclopenta[c]furan-5-yl)-7-methyl-8-oxo-8,9-dihydro-7H-purin-2-yl)amino)-5-methylbenzamide] | 2.13 | 
Cc1cc(C#N)ccc1Nc1ncc2c(n1)n(C1CC3COCC3C1)c(=O)n2C (stereo not drawn) [Compound 100, 4-((9-(hexahydro-1H-cyclopenta[c]furan-5-yl)-7-methyl-8-oxo-8,9-dihydro-7H-purin-2-yl)amino)-3-methylbenzonitrile] | 2.2 | 
Cc1cc(C#N)ccc1Nc1ncc2c(n1)n(C1CCS(=O)(=O)CC1)c(=O)n2C [Compound 101, 4-((9-(1,1-dioxidotetrahydro-2H-thiopyran-4-yl)-7-methyl-8-oxo-8,9-dihydro-7H-purin-2-yl)amino)-3-methylbenzonitrile] | 9.6 | 
[2H]C([2H])([2H])C([2H])([2H])n1c(=O)n(C2CCOCC2)c2nc(Nc3cc(F)c(C(N)=O)cc3C)ncc21 [Compound 105, 4-((7-(ethyl-d5)-8-oxo-9-(tetrahydro-2H-pyran-4-yl)-8,9-dihydro-7H-purin-2-yl)amino)-2-fluoro-5-methylbenzamide] | 5.54 | 
Cc1cc(C(N)=O)c(F)cc1Nc1ncc2c(n1)n(C1CCOCC1)c(=O)n2CC(F)F [Compound 106, 4-((7-(2,2-difluoroethyl)-8-oxo-9-(tetrahydro-2H-pyran-4-yl)-8,9-dihydro-7H-purin-2-yl)amino)-2-fluoro-5-methylbenzamide] | 6.75 | 
CCn1c(=O)n([C@H]2CCOC2)c2nc(Nc3cc(F)c(C(N)=O)cc3C)ncc21 [Compound 107, (S)((7-Ethyl-8-oxo-9-(tetrahydrofuran-3-yl)-8,9-dihydro-7H-purin-2-yl)amino)-2-fluoro-5-methylbenzamide] | 10.1 | 
Cc1cc(C(N)=O)c(F)cc1Nc1ncc2c(n1)n(C1CCOCC1)c(=O)n2CCF [Compound 109, 2-Fluoro-4-((7-(2-fluoroethyl)-8-oxo-9-(tetrahydro-2H-pyran-4-yl)-8,9-dihydro-7H-purin-2-yl)amino)-5-methylbenzamide] | 5.54 | 
